# From ChEMBL document CHEMBL1949641, “Anti-inflammatory mechanism of 15,16-epoxy-3α-hydroxylabda-8,13(16),14-trien-7-one via inhibition of LPS-induced multicellular signaling pathways” (J Nat Prod, 2012)
# Calls of active or inactive are those of the source. The calls are words filed in the database; no cut-off is given here.
# What was measured:
# RAW264.7 [1] = assay: Inhibition of NF-kappaB transcriptional activity expressed in mouse RAW264.7 cells assessed as inhibition of LPS-induced secretory alkaline phosphatase expression at 10 uM treated 2 hrs before LPS challenge measured after 18 hrs; format: cell-based
# RAW264.7 [2] = assay: Inhibition of NF-kappaB activation in mouse RAW264.7 cells assessed as protection of LPS-induced IkappaBalpha degradation at 50 uM treated 2 hrs before LPS challenge measured after 10 to 20 mins by Western blotting; format: cell-based
# RAW264.7 [3] = assay: Inhibition of LPS-induced NF-kappaB activation in mouse RAW264.7 cells assessed as inhibition ERK phosphorylation at 50 uM treated 2 hrs before LPS challenge measured after 10 to 30 mins by Western blot analysis; format: cell-based
# RAW264.7 [4] = assay: Inhibition of NF-kappaB transcriptional activity expressed in mouse RAW264.7 cells assessed as inhibition of LPS-induced secretory alkaline phosphatase expression at 5 uM treated 2 hrs before LPS challenge measured after 18 hrs; format: cell-based
# RAW264.7 [5] = assay: Inhibition of NF-kappaB transcriptional activity expressed in mouse RAW264.7 cells assessed as inhibition of LPS-induced secretory alkaline phosphatase expression at 25 uM treated 2 hrs before LPS challenge measured after 18 hrs; format: cell-based
# RAW264.7 [6] = assay: Inhibition of LPS-induced NF-kappaB activation in mouse RAW264.7 cells assessed as inhibition JNK phosphorylation at 50 uM treated 2 hrs before LPS challenge measured after 30 mins by Western blot analysis; format: cell-based
# RAW264.7 [7] = assay: Inhibition of NF-kappaB transcriptional activity expressed in mouse RAW264.7 cells assessed as inhibition of LPS-induced secretory alkaline phosphatase expression at 15 uM treated 2 hrs before LPS challenge measured after 18 hrs; format: cell-based
# RAW264.7 [8] = assay: Antiinflammatory activity in mouse RAW264.7 cells assessed as inhibition of LPS-induced nitric oxide production treated 2 hrs before LPS challenge measured after 18 hrs by Griess reaction method; format: functional, cell-based
# RAW264.7 [9] = assay: Inhibition of NF-kappaB transcriptional activity expressed in mouse RAW264.7 cells assessed as inhibition of LPS-induced secretory alkaline phosphatase expression at 50 uM treated 2 hrs before LPS challenge measured after 18 hrs; format: cell-based
# RAW264.7 [10] = assay: Inhibition of NF-kappaB activation in mouse RAW264.7 cells assessed as inhibition of LPS-induced IkappaBalpha phosphorylation at 50 uM treated 2 hrs before LPS challenge measured after 15 to 20 mins by Western blotting; format: cell-based
# RAW264.7 [11] = assay: Antiinflammatory activity in mouse RAW264.7 cells assessed as inhibition of LPS-induced COX2 expression treated 2 hrs before LPS challenge measured after 18 hrs by Western blotting; format: functional, cell-based
# RAW264.7 [12] = assay: Inhibition of LPS-induced NFkappaB/AP-1 DNA binding activity in mouse RAW264.7 cells treated 2 hrs before LPS challenge measured after 1 hr by electrophoretic mobility shift assay; format: cell-based
# [13] = target: Transcription factor p65 (Mus musculus) (UniProt Q04207); assay: Inhibition of LPS-induced NF-kappaB p65 nuclear translocation in mouse RAW264.7 cells treated 2 hrs before LPS challenge measured up to 1 hr Western blot analysis; format: cell-based
# RAW264.7 [14] = assay: Inhibition of LPS-induced NF-kappaB activation in mouse RAW264.7 cells assessed as inhibition p38alpha/beta phosphorylation at 50 uM treated 2 hrs before LPS challenge measured after 30 mins by Western blot analysis; format: cell-based
# RAW264.7 [15] = assay: Cytotoxicity against mouse RAW264.7 cells assessed as cell viability up to 50 uM after 24 hrs by MTT assay; format: cell-based; settings: raw264.7, 24 h
# RAW264.7 [16] = assay: Inhibition of NF-kappaB transcriptional activity expressed in mouse RAW264.7 cells assessed as inhibition of LPS-induced secretory alkaline phosphatase expression treated 2 hrs before LPS challenge measured after 18 hrs; format: cell-based
# RAW264.7 [17] = assay: Antiinflammatory activity in mouse RAW264.7 cells assessed as inhibition of LPS-induced iNOS expression treated 2 hrs before LPS challenge measured after 18 hrs by Western blotting; format: functional, cell-based
# RAW264.7 [18] = assay: Antiinflammatory activity in mouse RAW264.7 cells assessed as inhibition of LPS-induced TNFalpha by ELISA; format: functional, cell-based
# [19] = target: T1, Nuclear factor NF-kappa-B p105 subunit (Mus musculus) (UniProt P25799); assay: Inhibition of LPS-induced NF-kappaB p50 nuclear translocation in mouse RAW264.7 cells treated 2 hrs before LPS challenge measured up to 1 hr Western blot analysis; format: cell-based
# T1 sequence (whole entry): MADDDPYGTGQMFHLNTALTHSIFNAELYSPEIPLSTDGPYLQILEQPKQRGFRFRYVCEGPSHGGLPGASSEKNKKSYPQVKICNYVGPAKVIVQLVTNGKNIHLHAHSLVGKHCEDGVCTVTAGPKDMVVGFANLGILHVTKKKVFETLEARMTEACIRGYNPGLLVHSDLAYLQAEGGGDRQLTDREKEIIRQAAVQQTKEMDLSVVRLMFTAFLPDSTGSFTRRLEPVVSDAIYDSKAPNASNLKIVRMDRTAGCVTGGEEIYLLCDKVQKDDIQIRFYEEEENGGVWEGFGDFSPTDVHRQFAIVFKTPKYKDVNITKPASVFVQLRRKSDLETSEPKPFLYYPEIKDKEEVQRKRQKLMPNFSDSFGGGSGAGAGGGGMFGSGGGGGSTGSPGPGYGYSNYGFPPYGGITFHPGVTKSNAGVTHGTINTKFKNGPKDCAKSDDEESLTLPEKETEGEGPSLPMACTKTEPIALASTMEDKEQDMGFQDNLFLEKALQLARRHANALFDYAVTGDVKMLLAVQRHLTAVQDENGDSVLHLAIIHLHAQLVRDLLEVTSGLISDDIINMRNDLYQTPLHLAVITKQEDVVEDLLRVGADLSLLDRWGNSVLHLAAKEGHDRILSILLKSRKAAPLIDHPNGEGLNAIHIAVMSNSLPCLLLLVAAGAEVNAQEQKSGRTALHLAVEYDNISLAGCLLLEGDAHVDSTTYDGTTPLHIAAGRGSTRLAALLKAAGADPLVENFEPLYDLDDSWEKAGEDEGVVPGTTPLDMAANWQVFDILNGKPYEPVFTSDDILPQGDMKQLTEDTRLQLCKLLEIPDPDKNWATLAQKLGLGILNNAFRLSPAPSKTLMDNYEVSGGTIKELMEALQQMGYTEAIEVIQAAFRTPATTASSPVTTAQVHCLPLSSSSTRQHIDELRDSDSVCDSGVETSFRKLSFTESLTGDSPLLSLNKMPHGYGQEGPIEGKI
# RAW264.7 [20] = assay: Inhibition of LPS-induced Akt phosphorylation in mouse RAW264.7 cells treated 2 hrs before LPS challenge measured after 15 to 30 mins by Western blot analysis; format: cell-based
# Sequence of Transcription factor p65 (Mus musculus) (Q04207 whole entry): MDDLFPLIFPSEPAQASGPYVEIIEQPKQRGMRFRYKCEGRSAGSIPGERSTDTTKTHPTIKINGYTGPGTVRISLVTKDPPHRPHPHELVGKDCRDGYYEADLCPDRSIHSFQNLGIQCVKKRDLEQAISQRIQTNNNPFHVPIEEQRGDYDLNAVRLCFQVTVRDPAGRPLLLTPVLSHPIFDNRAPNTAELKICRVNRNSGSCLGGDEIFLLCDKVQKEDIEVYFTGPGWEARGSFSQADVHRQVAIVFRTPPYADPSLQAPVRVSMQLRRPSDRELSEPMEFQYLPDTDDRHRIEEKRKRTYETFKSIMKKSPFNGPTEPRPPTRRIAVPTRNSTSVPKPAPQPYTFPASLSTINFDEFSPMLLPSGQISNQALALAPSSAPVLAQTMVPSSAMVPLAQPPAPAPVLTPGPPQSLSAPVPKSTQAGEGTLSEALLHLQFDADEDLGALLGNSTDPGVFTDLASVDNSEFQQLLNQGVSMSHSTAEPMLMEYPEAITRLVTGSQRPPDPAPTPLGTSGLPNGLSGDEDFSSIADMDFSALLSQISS
Compound,inhibition (RAW264.7 [1]),Activity (RAW264.7 [2]),inhibition (RAW264.7 [3]),inhibition (RAW264.7 [4]),inhibition (RAW264.7 [5]),inhibition (RAW264.7 [6]),inhibition (RAW264.7 [7]),IC50 (RAW264.7 [8]),inhibition (RAW264.7 [9]),inhibition (RAW264.7 [10]),inhibition (RAW264.7 [11]),inhibition (RAW264.7 [12]),inhibition [13],inhibition (RAW264.7 [14]),Activity (RAW264.7 [15]),inhibition (RAW264.7 [16]),inhibition (RAW264.7 [17]),IC50 (RAW264.7 [18]),inhibition [19],inhibition (RAW264.7 [20])
Cc1ccc(S(=O)(=O)N[C@@H](Cc2ccccc2)C(=O)CCl)cc1,Active,,,,,,,,,,,,,,,,,,,
CC1=C(CCc2ccoc2)[C@@]2(C)CC[C@@H](O)C(C)(C)[C@@H]2CC1=O,,Active,Active,20.9%,69.1%,Active,56.6%,27 µM,90.3%,Active,Dose-dependent effect,Dose-dependent effect,Dose-dependent effect,Active,Non-toxic,Dose-dependent effect,Dose-dependent effect,38.5 µM,Dose-dependent effect,Active
